Target: T1, H3R-EGFP (Homo sapiens, UniProt Q9Y5N1)
T1 construct: expressed in transfected cells
Assay: Recycling of internalized H3R-EGFP to the cell surface, confocal microscopy
Type: cell-based
Conditions: 20 µM ZEL-H16 or 500 µM histamine for 30 min, cycloheximide 100 µg/ml
Method: Figure 6 Localization of internalized H3R-EGFP stably expressed in HEK-293 cells and recycling of internalized H3R to the cell surface. […] All pictures shown are representative of at least three independent experiments.
HEK-293 cells stably expressing H3R-EGFP were seeded in covered glass-bottom 6-well plates. […] After fixing the cells with 4% paraformaldehyde for 10 min, cells were mounted in mounting reagent (DTT/PBS/glycerol). Confocal images were taken on a Zeiss LSM 510 microscope with an attached Axiovert 200 microscope and LSM5 computer system. Images were collected using QED camera software and processed with Adobe Photoshop.

T1 sequence (Q9Y5N1 whole entry): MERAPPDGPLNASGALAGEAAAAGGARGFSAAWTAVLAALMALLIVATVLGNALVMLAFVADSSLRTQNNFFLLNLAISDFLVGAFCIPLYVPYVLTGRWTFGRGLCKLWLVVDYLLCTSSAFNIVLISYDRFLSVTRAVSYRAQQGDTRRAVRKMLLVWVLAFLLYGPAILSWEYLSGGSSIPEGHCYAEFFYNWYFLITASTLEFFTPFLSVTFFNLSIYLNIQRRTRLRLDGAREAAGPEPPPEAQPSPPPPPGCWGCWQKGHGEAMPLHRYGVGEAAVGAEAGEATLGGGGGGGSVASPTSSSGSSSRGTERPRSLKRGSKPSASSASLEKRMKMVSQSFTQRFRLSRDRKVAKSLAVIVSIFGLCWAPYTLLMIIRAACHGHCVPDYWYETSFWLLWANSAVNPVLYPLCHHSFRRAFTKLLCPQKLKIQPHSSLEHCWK

- time for internalized H3R to recycle to the cell surface after agonist removal: ≤ 3 h
SMILES: c1ccc2c(c1)c(CCCN1CCCCC1)cn2CCCN1CCCCC1 [ZEL-H16]

Reference: PMC3411647 (PLoS ONE, 2012)
